Test results taken from patent publication EP4786455A1, “NOVEL PHTHALAZINE DERIVATIVE COMPOUND AS SOS1 INHIBITOR, AND USE THEREOF” (Hanmi Pharmaceutical Co., Ltd., priority 2023, dated 2025).

Target: T1, SOS1 (Homo sapiens, UniProt Q07889)
T1 construct: comprising amino acid residues 564-1049 corresponding to the catalytic domain; purchased Reaction Biology Corp. SOS1-Strep #MSC-11-502; GST-KRAS G12C #MSC-11-538
T1 sequence (Q07889 564-1049): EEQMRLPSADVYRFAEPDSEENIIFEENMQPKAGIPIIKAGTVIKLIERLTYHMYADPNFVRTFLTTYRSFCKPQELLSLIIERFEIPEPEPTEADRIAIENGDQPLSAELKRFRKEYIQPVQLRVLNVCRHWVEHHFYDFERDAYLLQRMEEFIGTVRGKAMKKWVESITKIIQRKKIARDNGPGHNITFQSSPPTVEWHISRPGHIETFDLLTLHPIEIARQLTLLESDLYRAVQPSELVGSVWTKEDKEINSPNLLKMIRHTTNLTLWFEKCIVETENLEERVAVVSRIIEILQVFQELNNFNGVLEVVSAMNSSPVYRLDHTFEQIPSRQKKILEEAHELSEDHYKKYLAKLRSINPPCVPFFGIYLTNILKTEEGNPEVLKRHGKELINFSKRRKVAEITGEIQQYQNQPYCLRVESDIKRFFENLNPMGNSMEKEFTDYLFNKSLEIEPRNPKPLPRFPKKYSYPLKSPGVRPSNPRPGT
Experiment: Inhibitory activity on SOS1-mediated GTP exchange (HTRF / TR-FRET nucleotide exchange assay on KRAS G12C)
Type: biochemical
Conditions: SOS1-mediated GTP exchange on GST-KRAS G12C (residues 2-169); SOS1-Strep catalytic domain (564-1049); GTP-DY-647P1; HTRF signal; 5-point concentration series up to 1,000 nM
Experimental: To evaluate whether the SOS1-mediated nucleotide exchange activity on KRAS G12C is inhibited by the compounds of the above Examples, a homogeneous time-resolved fluorescence (homogenous time-resolved fluorescence, HTRF) assay was performed using GST-KRAS G12C (#MSC-11-538) and SOS1-Strep (#MSC-11-502) obtained from Reaction Biology Corp. (USA, MA). The activity of SOS1 was determined by measuring the amount of GTP bound to the KRAS G12C protein based on the principle of time-resolved fluorescence resonance energy transfer (time-resolved fluorescence energy transfer, TR-FRET). Terbium (Terbium) conjugated to an anti-GST antibody bound to the GST tag of the GST-KRAS G12C protein served as a FRET donor, and GTP bound to the KRAS G12C protein was labeled with the fluorophore DY-647P1, serving as a FRET acceptor. Based on this principle, a higher HTRF or FRET signal is observed as more GTP is bound to KRAS G12C due to the SOS1-mediated exchange reaction in the assay.
In summary, a GST-labeled KRAS G12C protein (comprising amino acid residues 2-169), a […] SOS1 protein (comprising amino acid residues 564-1049 corresponding to the catalytic domain), an anti-GST antibody, labeled nucleotide GTP-DY-647P1, and the test compound were mixed in a buffer solution containing 20 mM HEPES (pH 7.4), 150 mM NaCl, 5 mM MgCl2, 1 mM dithiothreitol (DTT), 0.05% BSA, and 0.0025% NP40. The mixture was dispensed into a 384-well plate, incubated at room temperature, and the HTRF signal was measured using a PHERAstar microplate reader (BMG Labtech). The excitation wavelength was 337 nm, and emission was measured at 620/665 nm. A background signal value was determined from fluorescence measurements obtained in the absence of SOS1 protein and was subtracted from all measured HTRF values. A control value was determined from fluorescence measurements obtained in the absence of the synthesized compounds and was set as the 100% reference. Fluorescence signals were measured at compound concentrations of 0.1, 1, 10, 100, and 1,000 nM (5 points, 10-fold) or 1.6, 8, 40, 200, and 1,000 nM (5 points, 5-fold). The 50% inhibitory concentration (IC50) values of the compounds were calculated using GraphPad Prism.
IC50 values were denoted as +++ when 50 nM or less, ++ when greater than 50 nM and 100 nM or less, and + when greater than 100 nM.

SMILES | IC50 [nM]
CNc1cc2c(N[C@H](C)c3cccc(C#N)c3C)nnc(C)c2cc1C(=O)N1CCCCC1 [Example 15, (R)-2-methyl-3-(1-((4-methyl-7-(methylamino)-6-(piperidine-1-carbonyl)phthalazin-1-yl)amino)ethyl)benzonitrile] | ≤ 50
CNc1cc2c(N[C@H](C)c3cccc(C#N)c3C)nnc(C)c2cc1C(=O)N1CCN(C2CC2)CC1 [Example 13, (R)-3-(1-((6-(4-cyclopropylpiperazine-1-carbonyl)-4-methyl-7-(methylamino)phthalazin-1-yl)amino)ethyl)-2-methylbenzonitrile] | ≤ 50
CNc1cc2c(N[C@H](C)c3cccc(C#N)c3C)nnc(C)c2cc1C(=O)N1CCC1 [Example 16, (R)-3-(1-((6-(azetidine-1-carbonyl)-4-methyl-7-(methylamino)phthalazin-1-yl)amino)ethyl)-2-methylbenzonitrile] | ≤ 50
CNc1cc2c(N[C@H](C)c3cccc(C#N)c3C)nnc(C)c2cc1C(=O)N1CCCOCC1 [Example 24, (R)-2-methyl-3-(1-((4-methyl-7-(methylamino)-6-(1,4-oxazepane-4-carbonyl)phthalazin-1-yl)amino)ethyl)benzonitrile] | ≤ 50
CCN1CCN(C(=O)c2cc3c(C)nnc(N[C@H](C)c4cccc(C#N)c4C)c3cc2NC)CC1 [Example 12, (R)-3-(1-((6-(4-ethylpiperazine-1-carbonyl)-4-methyl-7-(methylamino)phthalazin-1-yl)amino)ethyl)-2-methylbenzonitrile] | ≤ 50

Results, then the compound that gave them:

IC50 [nM] | SMILES
≤ 50 | CNc1cc2c(N[C@H](C)c3cccc(C#N)c3C)nnc(C)c2cc1C(=O)N1CCOCC1 [Example 1, (R)-2-methyl-3-(1-((4-methyl-7-(methylamino)-6-(morpholine-4-carbonyl)phthalazin-1-yl)amino)ethyl)benzonitrile]
≤ 50 | CNc1cc2c(N[C@H](C)c3cccc(C#N)c3C)nnc(C)c2cc1C(=O)N1CC2COCC2C1 (stereo partly drawn) [Example 7, 3-((1R)-1-((6-(hexahydro-1H-furo[3,4-c]pyrrole-5-carbonyl)-4-methyl-7-(methylamino)phthalazin-1-yl)amino)ethyl)-2-methylbenzonitrile]
≤ 50 | CNc1cc2c(N[C@H](C)c3cc(N)cc(C(F)(F)F)c3)nnc(C)c2cc1C(=O)N1CCOCC1 [Example 25, (R)-(1-((1-(3-amino-5-(trifluoromethyl)phenyl)ethyl)amino)-4-methyl-7-(methylamino)phthalazin-6-yl)(morpholino)methanone]
≤ 50 | CNc1cc2c(N[C@H](C)c3cccc(C#N)c3C)nnc(C)c2cc1C(=O)N1CC2CC1CO2 (stereo partly drawn) [Example 19, 3-((1R)-1-((6-(2-oxa-5-azabicyclo[2.2.1]heptane-5-carbonyl)-4-methyl-7-(methylamino)phthalazin-1-yl)amino)ethyl)-2-methylbenzonitrile]
